The values that follow come from PMC2151269, “Broad phase II and pharmacokinetic study of methoxy-morpholino doxorubicin (FCE 23762-MMRDX) in non-small-cell lung cancer, renal cancer and other solid tumour patients” (British Journal of Cancer, 1998).

On the set-up of data set [1]: method as in Tidefelt et al, 1989. To be noted: 0-48 h after simultaneous infusion of 20 mg of epirubicin and 20 mg of doxorubicin; ref Tidefelt et al, 1989; cited from earlier work.
The nature of data set [2]: Leucocyte (cellular) drug levels 2 and 24 h after injection. To be noted: leucocytes. The format is in vivo, human. An excerpt: British Jourmal of Cancer (1998) 77(1), 139-146 ? 1998 Cancer Research Campaign Broad phase 11 and pharmacokinetic study of methoxy-morpholino doxorubicin (FCE 23762-MMRDX) in non-small-cell lung cancer, renal cancer and other solid tumour patients M Bakker', JP Droz2, AR Hanauske3, J Verweij4, AT van Oosterom5, HJM Groen', MA Pacciarini6, L Domenigoni6, F van Weissenbruch', E Pianezzola6 and EGE de Vries' 'University Hospital Groningen, The Netherlands; 2Centre L6on Berard, Lyon, France; 3Med. […] Patients received a maximum of six cycles. […] Limitations of the clinical value of anthracyclines are their toxicity profile, especially irreversible, dose-related cardiotoxicity, and intrinsic or acquired tumour resis- tance. Various mechanisms play a role in tumour cell resistance to anthracyclines, including overexpression of drug efflux pumps such as P-glycoprotein, decreased levels of the target enzyme topoisomerase II, and an increase in cellular detoxifying capacity (Kaye and Merry, 1985; Deffie et al, 1989; De Jong et al, 1990; Ford and Hait, 1990; Meijer et al, 1990; Zaman et al, 1994). The morpholinyl anthracyclines have been developed in the course of research aimed at identifying new anthracyclines with at least partially novel modes of action in addition to activity against resis- tant tumours (Acton et al, 1984). […] Box 30.001, 9700 RB Groningen, The Netherlands (Figure 1).

Turning to `COc1cccc2c1C(=O)c1c(O)c3c(c(O)c1C2=O)C[C@@](O)(C(=O)CO)C[C@@H]3O[C@H]1C[C@H](N)[C@H](O)[C@H](C)O1` [doxorubicin], in data set [1], the “Peak cellular concentrations relative to plasma concentrations” value was “around 200 times”.
Regarding “13-dihydro-3'-deamino-3'-[2(S)-methoxy-4-morpholinyl] doxorubicin [13-dihydro metabolite]”, the “Intracellular levels as % of total MMRDX cellular levels” value in data set [2] is ≤ 5%.
With `COc1cccc2c1C(=O)c1c(O)c3c(c(O)c1C2=O)C[C@@](O)(C(=O)CO)C[C@@H]3O[C@H]1C[C@H](N)[C@@H](O)[C@H](C)O1` [epirubicin], in data set [1], the “Peak cellular concentrations relative to plasma concentrations” value is “around 200 times”.
